Measurements from patent publication US12655125B2 (SIRONAX LTD., priority 2020, dated 2026).
Like-named read-outs stand apart in the source and are kept apart here.

System: HT-29 cells
Assay: HT29 Cells 0FBS Assay In Vitro (TNF-α/SMAC mimetic/zVAD-FMK induced necroptosis, CellTiter-Glo cell viability)
Format: cell-based
Details: Homo sapiens
Method in brief: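 Viability was measured by ATP luminescence (CellTiter-Glo) after 20 h at 37° C of compound exposure in 10-point, 1:3 dilutions. Necroptosis in FBS-free HT-29 cultures was driven by a TNF-α (10 ng/ml), SMAC mimetic (6 μM) and zVAD-FMK (10 μM) cocktail. EC50 values are geometric means from duplicate curves.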

[1] = HT-29 cells, FBS free medium, TNF-α (10 ng/ml), SMAC mimetic (6 uM), zVAD-FMK (10 μM), 20 hours, geometric mean EC50, read-out: Cell activity (EC50) of Compounds 1-116
[2] = HT-29 cells, FBS free medium, TNF-α (10 ng/ml), SMAC mimetic (6 uM), zVAD-FMK (10 μM), 20 hours, geometric mean EC50, read-out: Cell activity (EC50) of Compounds 117-281

Structure (SMILES)	EC50 [1] [nM]	EC50 [2] [nM]	also measured
Cc1nn(-c2cc(OC3CN(C(=O)N4N=CC[C@H]4c4cc(F)cc(F)c4)C3)c(F)cn2)c(C)c1N [compound 109, (S)-(3-((2-(4-amino-3,5-dimethyl-11H-pyrazol-1-yl)-5-fluoropyridin-4-yl)oxy)azetidin-1-yl)(5-(3,5-difluorophenyl)-4,5-dihydro-1H-pyrazol-1-yl)methanone]	0.1 to 100	–	–
Cc1nn(-c2cc(OC3CN(C(=O)N4N=CC[C@H]4c4cc(F)cc(F)c4)C3)c(F)cn2)c(C)c1C(N)=O [compound 110, (S)-1-(4-((1-(5-(3,5-difluorophenyl)-4,5-dihydro-1H-pyrazole-1-carbonyl)azetidin-3-yl)oxy)-5-fluoropyridin-2-yl)-3,5-dimethyl-1H-pyrazole-4-carboxamide]	0.1 to 100	–	–
Cn1ncc(C#N)c1-c1ccc(F)c(OC2CN(C(=O)N3N=CCC3c3cc(F)cc(F)c3)C2)n1 (stereo not drawn) [compound 111, 5-(6-((1-(5-(3,5-difluorophenyl)-4,5-dihydro-1H-pyrazole-1-carbonyl)azetidin-3-yl)oxy)-5-fluoropyridin-2-yl)-1-methyl-11H-pyrazole-4-carbonitrile]	0.1 to 100	–	–
Cc1cnn(C)c1-c1ccc(F)c(OC2CN(C(=O)N3N=CC[C@H]3c3cc(F)cc(F)c3)C2)c1 [compound 112, (S)-(5-(3,5-difluorophenyl)-4,5-dihydro-1H-pyrazol-1-yl)(3-(5-(1,4-dimethyl-1H-pyrazol-5-yl)-2-fluorophenoxy)azetidin-1-yl)methanone]	0.1 to 100	–	–
Cc1n[nH]c(C)c1-c1ccc(F)c(OC2CN(C(=O)N3N=CC[C@H]3c3cc(F)cc(F)c3)C2)c1 [compound 113, (S)-(5-(3,5-difluorophenyl)-4,5-dihydro-1H-pyrazol-1-yl)(3-(5-(3,5-dimethyl-1H-pyrazol-4-yl)-2-fluorophenoxy)azetidin-1-yl)methanone]	0.1 to 100	–	–
Cn1ncc(C#N)c1-c1ccc(F)c(OC2CN(C(=O)N3N=CCC3c3cc(F)cc(F)c3)C2)c1 (stereo not drawn) [compound 114]	0.1 to 100	–	–
Cn1ncc(C(N)=O)c1-c1ccc(F)c(OC2CN(C(=O)N3N=CCC3c3cc(F)cc(F)c3)C2)c1 (stereo not drawn) [compound 115]	0.1 to 100	–	–
Cc1nc(C)n(-c2ccc(F)c(OC3CN(C(=O)N4N=CCC4c4cc(F)cc(F)c4)C3)c2)n1 (stereo not drawn) [compound 116]	0.1 to 100	–	–
Cc1nn(CCO)c(C)c1-c1cc(OC2CN(C(=O)N3N=CC[C@H]3c3cc(F)cc(F)c3)C2)c(F)cn1 [compound 117, (S)-(5-(3,5-difluorophenyl)-4,5-dihydro-1H-pyrazol-1-yl)(3-((5-fluoro-2-(1-(2-hydroxyethyl)-3,5-dimethyl-1H-pyrazol-4-yl)pyridin-4-yl)oxy)azetidin-1-yl)methanone]	–	–	EC50 (HT-29, 20 h, read-out: Cell activity (EC50) of Compounds 117-281): 0.1 to 100 nM
COC(=O)Cn1nc(C)c(-c2cc(OC3CN(C(=O)N4N=CC[C@H]4c4cc(F)cc(F)c4)C3)c(F)cn2)c1C [compound 118, methyl (S)-2-(4-(4-((1-(5-(3,5-difluorophenyl)-4,5-dihydro-1H-pyrazole-1-carbonyl)azetidin-3-yl)oxy)-5-fluoropyridin-2-yl)-3,5-dimethyl-1H-pyrazol-1-yl)acetate]	–	1000 to 10000	–
CN(C)CCNc1cnn(C)c1-c1cc(OC2CN(C(=O)N3N=CC[C@H]3c3cc(F)cc(F)c3)C2)c(F)cn1 [compound 119, (S)-(5-(3,5-difluorophenyl)-4,5-dihydro-1H-pyrazol-1-yl)(3-((2-(4-((2-(dimethylamino)ethyl)amino)-1-methyl-1H-pyrazol-5-yl)-5-fluoropyridin-4-yl)oxy)azetidin-1-yl)methanone]	–	100 to 1000	–
Cn1ncc(NCCN2CCOCC2)c1-c1cc(OC2CN(C(=O)N3N=CC[C@H]3c3cc(F)cc(F)c3)C2)c(F)cn1 [compound 120, (S)-(5-(3,5-difluorophenyl)-4,5-dihydro-1H-pyrazol-1-yl)(3-((5-fluoro-2-(1-methyl-4-((2-morpholinoethyl)amino)-1H-pyrazol-5-yl)pyridin-4-yl)oxy)azetidin-1-yl)methanone]	–	0.1 to 100	–
COCC(=O)Nc1cnn(C)c1-c1cc(OC2CN(C(=O)N3N=CC[C@H]3c3cc(F)cc(F)c3)C2)c(F)cn1 [compound 121, (S)—N-(5-(4-((1-(5-(3,5-difluorophenyl)-4,5-dihydro-1H-pyrazole-1-carbonyl)azetidin-3-yl)oxy)-5-fluoropyridin-2-yl)-1-methyl-1H-pyrazol-4-yl)-2-methoxyacetamide]	–	0.1 to 100	–
CN(C)CC(=O)Nc1cnn(C)c1-c1cc(OC2CN(C(=O)N3N=CC[C@H]3c3cc(F)cc(F)c3)C2)c(F)cn1 [compound 122, (S)—N-(5-(4-((1-(5-(3,5-difluorophenyl)-4,5-dihydro-1H-pyrazole-1-carbonyl)azetidin-3-yl)oxy)-5-fluoropyridin-2-yl)-1-methyl-1H-pyrazol-4-yl)-2-(dimethylamino)acetamide]	–	0.1 to 100	–
CN1CCN(CC(=O)Nc2cnn(C)c2-c2cc(OC3CN(C(=O)N4N=CC[C@H]4c4cc(F)cc(F)c4)C3)c(F)cn2)CC1 [compound 123, (S)—N-(5-(4-((1-(5-(3,5-difluorophenyl)-4,5-dihydro-1H-pyrazole-1-carbonyl)azetidin-3-yl)oxy)-5-fluoropyridin-2-yl)-1-methyl-1H-pyrazol-4-yl)-2-(4-methylpiperazin-1-yl)acetamide]	–	100 to 1000	–
CCc1nn(-c2cc(OC3CN(C(=O)N4N=CC[C@H]4c4cc(F)cc(F)c4)C3)c(F)cn2)c(C)c1C#N [compound 124, (S)-1-(4-((1-(5-(3,5-difluorophenyl)-4,5-dihydro-1H-pyrazole-1-carbonyl)azetidin-3-yl)oxy)-5-fluoropyridin-2-yl)-3-ethyl-5-methyl-1H-pyrazole-4-carbonitrile]	–	0.1 to 100	–
CNc1nn(C)c(-c2cc(OC3CN(C(=O)N4N=CC[C@H]4c4cc(F)cc(F)c4)C3)c(F)cn2)c1C [compound 125, (S)-(5-(3,5-difluorophenyl)-4,5-dihydro-1H-pyrazol-1-yl)(3-((2-(1,4-dimethyl-3-(methylamino)-1H-pyrazol-5-yl)-5-fluoropyridin-4-yl)oxy)azetidin-1-yl)methanone]	–	0.1 to 100	–
Cc1cn[nH]c1-c1cc(OC2CN(C(=O)N3N=CC[C@H]3c3cc(F)cc(F)c3)C2)c(F)cn1 [compound 126, (S)-(5-(3,5-difluorophenyl)-4,5-dihydro-1H-pyrazol-1-yl)(3-((5-fluoro-2-(4-methyl-1H-pyrazol-5-yl)pyridin-4-yl)oxy)azetidin-1-yl)methanone]	–	0.1 to 100	–
Cc1nsc(C)c1-c1cc(OC2CN(C(=O)N3N=CC[C@H]3c3cc(F)cc(F)c3)C2)c(F)cn1 [compound 127, (S)-(5-(3,5-difluorophenyl)-4,5-dihydro-1H-pyrazol-1-yl)(3-((2-(3,5-dimethylisothiazol-4-yl)-5-fluoropyridin-4-yl)oxy)azetidin-1-yl)methanone]	–	0.1 to 100	–
CCOC(=O)c1c(C)cc(C)n1-c1cc(OC2CN(C(=O)N3N=CC[C@H]3c3cc(F)cc(F)c3)C2)c(F)cn1 [compound 128, Ethyl (S)-1-(4-((1-(5-(3,5-difluorophenyl)-4,5-dihydro-1H-pyrazole-1-carbonyl)azetidin-3-yl)oxy)-5-fluoropyridin-2-yl)-3,5-dimethyl-1H-pyrrole-2-carboxylate]	–	0.1 to 100	–
COC(=O)c1cc(C)n(-c2cc(OC3CN(C(=O)N4N=CC[C@H]4c4cc(F)cc(F)c4)C3)c(F)cn2)c1C [compound 129, methyl (S)-1-(4-((1-(5-(3,5-difluorophenyl)-4,5-dihydro-1H-pyrazole-1-carbonyl)azetidin-3-yl)oxy)-5-fluoropyridin-2-yl)-2,5-dimethyl-1H-pyrrole-3-carboxylate]	–	0.1 to 100	–
